Reference: PubChem BioAssay (NCI)
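In this assay, cells in 96-well plates receive the compound at five concentrations for 48 hours. Endpoints are linearly interpolated between the surrounding concentrations. The concentration for 50% growth inhibition is given as GI50. TGI: concentration producing complete growth inhibition.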

Tests used:
Assay in all cases: NCI tumour cell line growth inhibition, 48 h
[1] = tested on: A549 NSCLC
[2] = tested on: IGROV1 ovarian
[3] = tested on: NCI-H23 lung
[4] = tested on: OVCAR-4 ovarian
[5] = tested on: OVCAR-8 ovarian
[6] = tested on: SK-MEL-28 melanoma
[7] = tested on: SN12C renal
[8] = tested on: TK-10 renal
[9] = tested on: UACC-257 melanoma
[10] = tested on: HS 578T breast

SMILES	TGI [1]	TGI [2]	TGI [3]	TGI [4]	TGI [5]	TGI [6]	TGI [7]	TGI [8]	TGI [9]	GI50 [1]	GI50 [2]	GI50 [3]	GI50 [4]	GI50 [5]	GI50 [6]	GI50 [7]	GI50 [8]	GI50 [9]	GI50 [10]	TGI [10]
CNC(=O)OCc1cc2ccncc2c2c1[nH]c1ccccc12	> 100 µM	> 100 µM	> 100 µM	> 100 µM	> 100 µM	> 100 µM	> 100 µM	> 100 µM	> 100 µM											
CC1OC(n2cc(I)c(=O)[nH]c2=O)C=CC1=O (stereo not drawn)	72.6 µM	39.2 µM	30.7 µM	29.8 µM	30.8 µM	29.2 µM	33.3 µM	32.9 µM	27.8 µM											
COc1ccc2cc(C(=O)/C=C/c3ccco3)ccc2c1	> 100 µM	> 100 µM	42.7 µM	> 100 µM	> 100 µM	> 100 µM	> 100 µM	70 µM	59.6 µM	31.8 µM	30.3 µM	19.5 µM	64.3 µM	34.2 µM	> 100 µM	31.3 µM	25.6 µM	26.1 µM		
CN1CCN(CCCOc2ccc3nc(Nc4ccc(C(F)(F)F)c(Cl)c4)ccc3c2)CC1	3.48 µM	5.3 µM	3 µM	4.59 µM	4.64 µM	3.89 µM		3.51 µM		1.92 µM	2.33 µM	1.47 µM	1.71 µM	2.07 µM	1.88 µM		1.8 µM		1.82 µM	6.1 µM
COc1cc2c3c(c1OCc1ccccc1)NCCC3NCC2 (stereo not drawn)	> 100 µM	> 100 µM	> 100 µM	> 100 µM	> 100 µM		> 100 µM	> 100 µM	> 100 µM											
NC(=O)OCC(COc1ccc(Cl)cc1)OC(=O)c1cc([N+](=O)[O-])cc([N+](=O)[O-])c1 (stereo not drawn)	> 100 µM	> 100 µM	> 100 µM		> 100 µM	> 100 µM	> 100 µM	> 100 µM	> 100 µM											
[O]=[W](=[O])([OH])[OH]	> 100 µM	> 100 µM	> 100 µM	> 100 µM	> 100 µM	> 100 µM	> 100 µM	> 100 µM	> 100 µM	> 100 µM	> 100 µM	> 100 µM	> 100 µM	> 100 µM	> 100 µM	> 100 µM	> 100 µM	> 100 µM		
O=[N+]([O-])c1cc([N+](=O)[O-])c(C(Cl)C(Cl)c2ccccc2)cc1C(Cl)C(Cl)c1ccccc1 (stereo not drawn)	4.51 µM	7.53 µM	3.72 µM	7.28 µM	4.62 µM	3.95 µM	3.49 µM	4.23 µM	4.09 µM											
CCOC(=O)NN(C(=O)OCC)C(C(=O)c1ccc(Cl)cc1)=C1NCCN1	> 100 µM	> 100 µM	> 100 µM	> 100 µM	> 100 µM	> 100 µM	> 100 µM	> 100 µM	> 100 µM											
O=C(NCCCCCCNC(=O)NC1OCC(O)C(O)C1O)NC1OCC(O)C(O)C1O (stereo not drawn)	> 100 µM	> 100 µM	> 100 µM	> 100 µM	> 100 µM	> 100 µM	> 100 µM	> 100 µM												
N#C/C(=C\c1ccc([N+](=O)[O-])s1)c1nc2cc(Br)ccc2s1	> 100 µM	1.14 µM	1.35 µM		0.805 µM	> 100 µM	0.576 µM	> 100 µM		0.509 µM	0.254 µM	0.279 µM		0.246 µM	0.346 µM	0.201 µM	0.918 µM		0.804 µM	9.28 µM
CO[C@]12CCC(=O)N1C=Cc1c2[nH]c2ccccc12	> 100 µM	> 100 µM	> 100 µM	> 100 µM	> 100 µM	> 100 µM		> 100 µM	> 100 µM											
CC(C)N(C(=O)C12C3C4C5C3C1(C#N)C5C42)C(C)C (stereo not drawn)	> 100 µM	> 100 µM	> 100 µM	> 100 µM	> 100 µM	> 100 µM	> 100 µM	> 100 µM	> 100 µM											
N#CC(C(=O)C(=O)Nc1ccc(Cl)c(Cl)c1)c1ccc(Cl)cc1 (stereo not drawn)	> 100 µM	> 100 µM	> 100 µM		> 100 µM	> 100 µM	> 100 µM	> 100 µM	> 100 µM											
CC(=O)OCc1c(C)c2ccccc2n1C(C)=O	> 100 µM	> 100 µM	> 100 µM	> 100 µM	> 100 µM	> 100 µM	> 100 µM	> 100 µM	89.8 µM											
CN1CCc2cc(O)c3cc2C1Cc1ccc(cc1)Oc1cc(ccc1O)CC1c2c(cc4c(c2O3)OCO4)CCN1C (stereo not drawn)	> 100 µM	> 100 µM	> 100 µM	88.6 µM	48.9 µM	46.4 µM	> 100 µM	92.2 µM												
CN/N=C(/CC(=O)c1sc(-n2nc(-c3ccccc3)cc2-c2ccccc2)nc1C)C(=O)Nc1ccc(Cl)c(Cl)c1	> 100 µM	> 100 µM	> 100 µM	> 100 µM	> 100 µM	> 100 µM	> 100 µM		> 100 µM											
CCOC1=C2C(C)(CCC3[C@@]4(C)C=CC(=O)C(C)(C)C4CC(O)[C@@]23C)C(c2ccoc2)C1=O (stereo partly drawn)	98.6 µM	> 100 µM	34.8 µM	> 100 µM	44.3 µM	30.5 µM	58 µM	61.3 µM	99.3 µM											
O=C(CC(=O)c1cccc([N+](=O)[O-])c1)C(=O)Nc1nc([N+](=O)[O-])cs1	> 100 µM	> 100 µM	> 100 µM	> 100 µM	> 100 µM	> 100 µM	> 100 µM	> 100 µM	> 100 µM											
CCC[CH2][Ge]([CH2]CCC)([CH2]CCC)[O]C(=O)C(OC(C)=O)c1ccccc1 (stereo not drawn)	30.9 µM	25.8 µM	6.24 µM	20.2 µM	22.8 µM	22.1 µM	24.9 µM	54.3 µM	11.5 µM	3.37 µM	11.2 µM	0.0395 µM	0.166 µM	9.77 µM	8.12 µM	7.7 µM	8.06 µM	0.246 µM		
N#Cc1nc(Nc2ccc(Cl)cc2)sc1N	> 67.1 µM	> 88.9 µM	13.2 µM	> 72.5 µM	> 79.4 µM	> 70.8 µM	> 69.1 µM	> 76.6 µM	31.1 µM											
O=C1C2C3CCC(C2C(=O)N1CO)C1C2C(=O)N(CO)C(=O)C2C31 (stereo not drawn)	> 67.6 µM	> 100 µM	> 100 µM	> 58.8 µM	> 67.6 µM	> 100 µM	> 69.2 µM	> 100 µM	> 100 µM											
CC1=C2[C@@H](c3ccccc3)C3C=CC2(c2ccccc23)N(C(=O)Nc2cccc3ccccc23)C1=O (stereo partly drawn)	> 100 µM	> 100 µM	> 100 µM	> 100 µM	> 100 µM	> 100 µM	> 100 µM		> 100 µM											
N#CC(C#N)=Cc1ccc(Oc2ccccc2)cc1	> 100 µM	> 69 µM	52.2 µM		73.7 µM	25.3 µM	20.6 µM	> 100 µM	> 71.3 µM											
O=C1C(Cl)=C(Nc2cccc(O)c2)C(=O)N1c1ccc(Cl)cc1Cl	> 100 µM	51.5 µM	88.7 µM	> 100 µM	64.2 µM	> 100 µM	35.9 µM	> 100 µM		46.3 µM	22.5 µM	24.9 µM	43.2 µM	28 µM	60.9 µM	17.1 µM	> 100 µM			
CCCCCCCCCCCCCC(=O)OC1C(CO)OC(=O)C1O (stereo not drawn)	> 100 µM	> 100 µM	> 100 µM	> 100 µM	> 100 µM		> 100 µM	> 100 µM	> 100 µM											
N=C(N)c1ccc(-c2ccc(-c3ccc(Cl)c(Cl)c3)o2)nc1		3.59 µM	4.59 µM			3.34 µM	3.52 µM	3.77 µM			1.86 µM	2.02 µM			1.76 µM	1.74 µM	2.03 µM		1.89 µM	4.36 µM
Cc1cn2c(/C=N/N=C(N)N)c(-c3cc(Cl)sc3Cl)nc2s1			1.66 µM		2.9 µM			2.95 µM				0.904 µM		1.19 µM			1.15 µM			
C[CH2][Sn]([Cl])([CH2]C)[CH2]C	5.04 µM	5.22 µM	4.84 µM	11 µM	4.35 µM	11.6 µM	3.47 µM	6.94 µM	4.43 µM	1.18 µM	0.646 µM	0.556 µM	1.41 µM	1.69 µM	1.67 µM	0.841 µM	3.02 µM	1 µM		
